Assay results from patent US6410575B1, “Viral treatment” (The Procter & Gamble Company, priority 1999, dated 2002).
Values after ≈ are worked out from the molar mass of the structure shown. Values joined by “and” are separate entries in the source; they are usually repeats but may differ in a detail not shown here. Equal entries are not always repeated.

Experiments:
[1] = tested on: HSV-2MS; test: Herpes simplex testing in vero cells; type: cell-based, herpes simplex virus -2; settings: HSV-2MS in vero cells
[2] = tested on: HIV-1 cell line, CEMIIIB; test: Long term in vitro study, CEMIIIB; type: cell-based
Experimental: (§1) Toxicity quantification involves the XTT-based evaluation. Assays were designed to characterize the long term effects of the compounds on virus production and to characterize the longer term effects of the compounds on virus production from chronically HIV infected cells.
(§2) CEM-SS cells chronically infected with HIV isolate, for example SKI (CEM-SKI) are cultured in RPMI1640 tissue culture medium supplemented with 10% fetal bovine serum and antibiotics. […] CEM-SKI or other infected cells with no added drug are used as the control cells.
(§3) Cells are allowed to grow to a density of approximately 1×10^6 cells/ml and are then passaged at a 1:10 dilution. […] The drug concentration in the flask is then increased two-fold and the cells maintained as above.
(§4) The cell populations contain integrated copies of the HIV genome and constitutively produce HIV at relatively high levels or are latently infected and only produce virus after stimulation with phorbol esters, tumor necrosis factor or IL6(U1 and ACH2). Reductions in virus products were observed when quantifying supernatant reverse transcriptase activity.
The results with CEMIIIB cells was reported at weekly intervals.
The CEMIIIB is a viral strain of the CEMSS cell line.

[3] = tested on: HIV-1 cell line, U937IIIB; test: Long term in vitro study, U937IIIB; type: cell-based
Experimental: as §1, §2, §3, §4
The results with U937IIIB cells were reported at weekly intervals.
The U937IIIB cell line is viral strain of the U937 cell line.

[4] = tested on: U937JE225R, a protease resistant strain; test: Long term in vitro study, U937JE225R; type: cell-based, HIV
Experimental: as §1, §2, §3, §4
The results with U937JE225R cells was reported at weekly intervals.

[5] = tested on: U937KN1272, a protease resistant strain; test: Long term in vitro study, U937KN1272; type: cell-based, HIV
Experimental: as §1, §2, §3, §4
Similar results are obtained with U937KN1272, a protease resistant strain, reported below.

[6] = tested on: CEMROD; test: Toxicity values in the HIV-2 screening test; type: cell-based; set-up: Toxicity Values, sample / Toxicity Values, average: unit not given here
From the text: as §1

[7] = tested on: Curvularia lunata; test: Anti-fungal activity, MIC (NCCLS M-27A based); type: cell-based
Experimental: It was active against Cryptococcus neoformans and Curvularia lunata. The cidal activity for the C. neoformans is high enough that it is clear […] against this yeast. This test was conducted using a method based upon NCCLS reference method M-27A published in 1997. Solvent, medium and growth controls were set-up with the tests. Once these were read to validate the test performance, the QC fungi were read to insure they had expected results. These steps validated the test system. DMSO was used as a drug-chemical solvent. […] The 90% cut-off is necessary for azoles, which are static and not cidal. The […] or cidal level, was determined by sub-culturing a sample from each tube showing no growth.

## NC(=S)Nc1nsc(-c2ccccc2)n1
[1]
  TI or therapeutic index: > 1.3
[2]; 7 μg/ml, day 4
  virus production (supernatant reverse transcriptase activity): 4849
[2]; 7 μg/ml, day 11
  virus production (supernatant reverse transcriptase activity): 6658
[2]; 7 μg/ml, day 18
  virus production (supernatant reverse transcriptase activity): 7078
[2]; 7 μg/ml, day 25
  virus production (supernatant reverse transcriptase activity): 5221
[2]; 7 μg/ml, day 32
  virus production (supernatant reverse transcriptase activity): 5329
[2]; 7 μg/ml, day 39
  virus production (supernatant reverse transcriptase activity): 7349
[2]; 7 μg/ml, day 46
  virus production (supernatant reverse transcriptase activity): 11262
[2]; 7 μg/ml, day 53
  virus production (supernatant reverse transcriptase activity): 11286
[2]; 15 μg/ml, day 4
  virus production (supernatant reverse transcriptase activity): 5078
[2]; 15 μg/ml, day 11
  virus production (supernatant reverse transcriptase activity): 5733
[2]; 15 μg/ml, day 18
  virus production (supernatant reverse transcriptase activity): 6057
[2]; 15 μg/ml, day 25
  virus production (supernatant reverse transcriptase activity): 4980
[2]; 15 μg/ml, day 32
  virus production (supernatant reverse transcriptase activity): 4273
[2]; 15 μg/ml, day 39
  virus production (supernatant reverse transcriptase activity): 6329
[2]; 15 μg/ml, day 46
  virus production (supernatant reverse transcriptase activity): 10361
[2]; 15 μg/ml, day 53
  virus production (supernatant reverse transcriptase activity): 9844
[2]; 30 μg/ml, day 4
  virus production (supernatant reverse transcriptase activity): 5251
[2]; 30 μg/ml, day 11
  virus production (supernatant reverse transcriptase activity): 6200
[2]; 30 μg/ml, day 18
  virus production (supernatant reverse transcriptase activity): 6952
[2]; 30 μg/ml, day 25
  virus production (supernatant reverse transcriptase activity): 4110
[2]; 30 μg/ml, day 32
  virus production (supernatant reverse transcriptase activity): 3337
[2]; 30 μg/ml, day 39
  virus production (supernatant reverse transcriptase activity): 4233
[2]; 30 μg/ml, day 46
  virus production (supernatant reverse transcriptase activity): 9238
[2]; 30 μg/ml, day 53
  virus production (supernatant reverse transcriptase activity): 3527
[3]; 7 μg/ml, day 4
  virus production (supernatant reverse transcriptase activity): 9368
[3]; 7 μg/ml, day 11
  virus production (supernatant reverse transcriptase activity): 8889
[3]; 7 μg/ml, day 18
  virus production (supernatant reverse transcriptase activity): 7566
[3]; 7 μg/ml, day 25
  virus production (supernatant reverse transcriptase activity): 5781
[3]; 7 μg/ml, day 32
  virus production (supernatant reverse transcriptase activity): 3414
[3]; 7 μg/ml, day 39
  virus production (supernatant reverse transcriptase activity): 5346
[3]; 7 μg/ml, day 46
  virus production (supernatant reverse transcriptase activity): 4085
[3]; 7 μg/ml, day 53
  virus production (supernatant reverse transcriptase activity): 4832
[3]; 15 μg/ml, day 4
  virus production (supernatant reverse transcriptase activity): 9710
[3]; 15 μg/ml, day 11
  virus production (supernatant reverse transcriptase activity): 8025
[3]; 15 μg/ml, day 18
  virus production (supernatant reverse transcriptase activity): 5435
[3]; 15 μg/ml, day 25
  virus production (supernatant reverse transcriptase activity): 6064
[3]; 15 μg/ml, day 32
  virus production (supernatant reverse transcriptase activity): 2479
[3]; 15 μg/ml, day 39
  virus production (supernatant reverse transcriptase activity): 4377
[3]; 15 μg/ml, day 46
  virus production (supernatant reverse transcriptase activity): 3867
[3]; 15 μg/ml, day 53
  virus production (supernatant reverse transcriptase activity): 3510
[3]; 30 μg/ml, day 4
  virus production (supernatant reverse transcriptase activity): 9549
[3]; 30 μg/ml, day 11
  virus production (supernatant reverse transcriptase activity): 7639
[3]; 30 μg/ml, day 18
  virus production (supernatant reverse transcriptase activity): 3551
[3]; 30 μg/ml, day 25
  virus production (supernatant reverse transcriptase activity): 4611
[3]; 30 μg/ml, day 32
  virus production (supernatant reverse transcriptase activity): 1855
[3]; 30 μg/ml, day 39
  virus production (supernatant reverse transcriptase activity): 2410
[3]; 30 μg/ml, day 46
  virus production (supernatant reverse transcriptase activity): 1550
[3]; 30 μg/ml, day 53
  virus production (supernatant reverse transcriptase activity): 1819
[4]; 7 μg/ml, day 4
  virus production (supernatant reverse transcriptase activity): 12165
[4]; 7 μg/ml, day 11
  virus production (supernatant reverse transcriptase activity): 9465
[4]; 7 μg/ml, day 18
  virus production (supernatant reverse transcriptase activity): 10341
[4]; 7 μg/ml, day 25
  virus production (supernatant reverse transcriptase activity): 9079
[4]; 7 μg/ml, day 32
  virus production (supernatant reverse transcriptase activity): 6797
[4]; 7 μg/ml, day 39
  virus production (supernatant reverse transcriptase activity): 9792
[4]; 7 μg/ml, day 46
  virus production (supernatant reverse transcriptase activity): 9915
[4]; 7 μg/ml, day 53
  virus production (supernatant reverse transcriptase activity): 1094
[4]; 15 μg/ml, day 4
  virus production (supernatant reverse transcriptase activity): 11151
[4]; 15 μg/ml, day 11
  virus production (supernatant reverse transcriptase activity): 9935
[4]; 15 μg/ml, day 18
  virus production (supernatant reverse transcriptase activity): 9738
[4]; 15 μg/ml, day 25
  virus production (supernatant reverse transcriptase activity): 7104
[4]; 15 μg/ml, day 32
  virus production (supernatant reverse transcriptase activity): 6426
[4]; 15 μg/ml, day 39
  virus production (supernatant reverse transcriptase activity): 10618
[4]; 15 μg/ml, day 46
  virus production (supernatant reverse transcriptase activity): 10471
[4]; 15 μg/ml, day 53
  virus production (supernatant reverse transcriptase activity): 9756
[4]; 30 μg/ml, day 4
  virus production (supernatant reverse transcriptase activity): 12033
[4]; 30 μg/ml, day 11
  virus production (supernatant reverse transcriptase activity): 9859
[4]; 30 μg/ml, day 18
  virus production (supernatant reverse transcriptase activity): 11874
[4]; 30 μg/ml, day 25
  virus production (supernatant reverse transcriptase activity): 5281
[4]; 30 μg/ml, day 32
  virus production (supernatant reverse transcriptase activity): 4154
[4]; 30 μg/ml, day 39
  virus production (supernatant reverse transcriptase activity): 5379
[4]; 30 μg/ml, day 46
  virus production (supernatant reverse transcriptase activity): 5239
[4]; 30 μg/ml, day 53
  virus production (supernatant reverse transcriptase activity): 4423
[5]; U937KN1272, 7 μg/ml, day 4
  virus production (supernatant reverse transcriptase activity): 119839
[5]; U937KN1272, 7 μg/ml, day 11
  virus production (supernatant reverse transcriptase activity): 78089
[5]; U937KN1272, 7 μg/ml, day 18
  virus production (supernatant reverse transcriptase activity): 74773
[5]; U937KN1272, 7 μg/ml, day 25
  virus production (supernatant reverse transcriptase activity): 78997
[5]; U937KN1272, 7 μg/ml, day 32
  virus production (supernatant reverse transcriptase activity): 31156
[5]; U937KN1272, 7 μg/ml, day 39
  virus production (supernatant reverse transcriptase activity): 41326
[5]; U937KN1272, 7 μg/ml, day 46
  virus production (supernatant reverse transcriptase activity): 31024
[5]; U937KN1272, 7 μg/ml, day 53
  virus production (supernatant reverse transcriptase activity): 31209
[5]; U937KN1272, 15 μg/ml, day 4
  virus production (supernatant reverse transcriptase activity): 103341
[5]; U937KN1272, 15 μg/ml, day 11
  virus production (supernatant reverse transcriptase activity): 80161
[5]; U937KN1272, 15 μg/ml, day 18
  virus production (supernatant reverse transcriptase activity): 73939
[5]; U937KN1272, 15 μg/ml, day 25
  virus production (supernatant reverse transcriptase activity): 74262
[5]; U937KN1272, 15 μg/ml, day 32
  virus production (supernatant reverse transcriptase activity): 26305
[5]; U937KN1272, 15 μg/ml, day 39
  virus production (supernatant reverse transcriptase activity): 28635
[5]; U937KN1272, 15 μg/ml, day 46
  virus production (supernatant reverse transcriptase activity): 18073
[5]; U937KN1272, 15 μg/ml, day 53
  virus production (supernatant reverse transcriptase activity): 22110
[5]; U937KN1272, 30 μg/ml, day 4
  virus production (supernatant reverse transcriptase activity): 114070
[5]; U937KN1272, 30 μg/ml, day 11
  virus production (supernatant reverse transcriptase activity): 89087
[5]; U937KN1272, 30 μg/ml, day 18
  virus production (supernatant reverse transcriptase activity): 72398
[5]; U937KN1272, 30 μg/ml, day 25
  virus production (supernatant reverse transcriptase activity): 38006
[5]; U937KN1272, 30 μg/ml, day 32
  virus production (supernatant reverse transcriptase activity): 6908
[5]; U937KN1272, 30 μg/ml, day 39
  virus production (supernatant reverse transcriptase activity): 14779
[5]; U937KN1272, 30 μg/ml, day 46
  virus production (supernatant reverse transcriptase activity): 5663
[5]; U937KN1272, 30 μg/ml, day 53
  virus production (supernatant reverse transcriptase activity): 10534
[6]; 0.32 μg/ml
  % cell control: 101.6%
  Toxicity Values, average: 1.197
  Toxicity Values, sample: 1.181 and 1.206 and 1.203
[6]; 1 μg/ml
  % cell control: 90.9%
  Toxicity Values, average: 1.071
  Toxicity Values, sample: 1.055 and 1.093 and 1.066
[6]; 1.0 μg/ml
  % cell control: 75.6%
  Toxicity Values, average: 0.891
  Toxicity Values, sample: 0.871 and 0.881 and 0.921
[6]; 3.2 μg/ml
  % cell control: 83.1%
  Toxicity Values, average: 0.979
  Toxicity Values, sample: 0.987 and 0.984 and 0.965
[6]; 32 μg/ml
  % cell control: 43.2%
  Toxicity Values, average: 0.509
  Toxicity Values, sample: 0.518 and 0.491 and 0.517
[6]; 100 μg/ml
  % cell control: 9.8%
  Toxicity Values, average: 0.115
  Toxicity Values, sample: 0.113 and 0.117 and 0.115
[7]
  anti-fungal activity in vitro: active
[7]; growth inhibited or reduced at least 90%, read-out: MIC
  MIC: 0.03 µg/mL (≈ 0.127 µM)
